Assays:
Assay type in all cases: in vivo
[1] = tested on: Digitaria sanguinalis (DIGSA); assay: E. Herbicidal post-emergence efficacy, DIGSA
Procedure: Seeds of monocotyledonous and dicotyledonous weeds and crop plants were placed in sandy loam in plastic or organic planting pots, covered with soil and cultivated in a greenhouse under controlled growth conditions. 2 to 3 weeks after sowing, the test plants were treated at the one-leaf stage. The compounds of the invention, formulated in the form of wettable powders (WP) or as emulsion concentrates (EC), were then sprayed onto the green parts of the plants as aqueous suspension or emulsion with addition of 0.5% additive at a water application rate of 600 l/ha (converted). After the test plants had been kept in the greenhouse under optimum growth conditions for about 3 weeks, the activity of the preparations was rated visually in comparison to untreated controls.
For example, • 100% efficacy=plants have died, • 0% action=like untreated control plants.
Tables E1a to E12b below show the effects of selected compounds of the general formula (I) according to table 1 on various harmful plants at an application rate corresponding to 320 g/ha or less, which were obtained by the experimental procedure mentioned above.

Veronica persica (VERPE) [2] = assay: E. Herbicidal post-emergence efficacy, VERPE
How it was run: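 Greenhouse post-emergence spray, one-leaf stage (2–3 wk after sowing, sandy loam); WP/EC formulation, aqueous + 0.5% additive, 600 l/ha water; rates 320 g/ha or less. Visual rating ~3 wk later vs untreated; 0% = control-like, 100% = dead.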

[3] = tested on: Alopecurus myosuroides (ALOMY); assay: B. Herbicidal post-emergence efficacy, ALOMY; conditions: 1280 g/ha, rated visually after about 3 weeks
Procedure: Seeds of mono- and dicotyledonous weed plants were placed in plastic pots in sandy loam soil (doubly sown with in each case one species of mono- or dicotyledonous weed plants per pot), covered with soil and cultivated in a greenhouse under controlled growth conditions. 2 to 3 weeks after sowing, the test plants were treated at the one-leaf stage. The compounds of the invention, formulated in the form of wettable powders (WP) or as emulsion concentrates (EC), were applied onto the green parts of the plants as aqueous suspension or emulsion with addition of 0.5% additive at a water application rate of 600 liters per hectare (converted). After the test plants had been kept in the greenhouse under optimum growth conditions for about 3 weeks, the activity of the preparations was rated visually in comparison to untreated controls.
For example, • 100% efficacy=plants have died, • 0% efficacy=like untreated control plants
Tables B1a to B12c below show the effects of selected inventive compounds of the general formula (I) according to table 1 on various harmful plants at an application rate corresponding to 1280 g/ha or less, which were obtained by the experimental procedure mentioned above.

[4] = tested on: Digitaria sanguinalis (DIGSA); assay: B. Herbicidal post-emergence efficacy, DIGSA; conditions: rated visually after about 3 weeks
How it was run: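 Weeds grown in sandy loam in greenhouse pots, sprayed at one-leaf stage (2–3 weeks after sowing) with WP or EC formulations as aqueous suspension/emulsion plus 0.5% additive at 600 L/ha water, rates up to 1280 g/ha. Visual efficacy rated about 3 weeks later versus untreated controls (0% = like control, 100% = dead).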

Veronica persica (VERPE) [5] = assay: C. Herbicidal pre-emergence efficacy, VERPE; conditions: scored after about 3 weeks
How it was run: (§1)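 Pre-emergence test: formulated compounds sprayed as aqueous suspension or emulsion with 0.5% additive at 600 l/ha onto soil covering sown seeds, at rates corresponding to 320 g/ha or less. After about 3 weeks in greenhouse, efficacy scored visually as percent versus untreated controls (100% = plants dead).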

Zea mays (ZEAMX) [6] = assay: F. Post-emergence effect on useful plants, ZEAMX; conditions: useful plant
How it was run: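 Crop plants grown in sandy loam in the greenhouse were sprayed at the one-leaf stage, 2-3 weeks after sowing, with WP or EC formulations plus 0.5% additive at 600 l/ha water. Damage was scored visually after about 3 weeks against untreated controls (0% = like control, 100% = dead).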

[7] = tested on: Amaranthus retroflexus (AMARE); assay: C. Herbicidal pre-emergence efficacy, AMARE; conditions: scored after about 3 weeks
How it was run: as §1

Zea mays (ZEAMX) [8] = assay: D. Pre-emergence effect on useful plants, ZEAMX; conditions: useful plant
How it was run: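 Seeds sown in pots and covered with soil; WP or EC formulations sprayed on the soil surface as aqueous suspension/emulsion with 0.5% additive at 600 l/ha water. Plants grown in greenhouse; crop damage scored visually after about 3 weeks as % versus untreated controls (100% = dead, 0% = like control).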

[9] = tested on: Matricaria inodora (MATIN); assay: C. Herbicidal pre-emergence efficacy, MATIN; conditions: scored after about 3 weeks
How it was run: as §1

Avena fatua (AVEFA) = assay: C. Herbicidal pre-emergence efficacy, AVEFA; conditions: 320 g/ha, scored after about 3 weeks
Description: Seeds of monocotyledonous and dicotyledonous weed plants and crop plants were placed in plastic or organic planting pots and covered with soil. The compounds of the invention, formulated in the form of wettable powders (WP) or as emulsion concentrates (EC), were then applied to the surface of the covering soil as aqueous suspension or emulsion with addition of 0.5% additive at a water application rate equivalent to 600 l/ha (converted). After the treatment, the pots were placed in a greenhouse and kept under good growth conditions for the test plants. After about 3 weeks, the efficacy of the preparations was scored visually in comparison with untreated controls as percentages. For example, • 100% efficacy=plants have died, • 0% efficacy=like untreated control plants.
Tables C1a to C14b below show the effects of selected compounds of the general formula (I) according to table 1 on various harmful plants at an application rate corresponding to 320 g/ha or less, which were obtained by the experimental procedure mentioned above.

Structure (SMILES) | Post-emergence efficacy against DIGSA in % ([1]; application rate 80 g/ha) | Post-emergence efficacy against DIGSA in % ([1]; application rate 320 g/ha) | Post-emergence efficacy against VERPE in % (Veronica persica (VERPE) [2]; application rate 80 g/ha) | Post-emergence efficacy against VERPE in % (Veronica persica (VERPE) [2]; application rate 320 g/ha) | Post-emergence efficacy against ALOMY in % [3] | Post-emergence efficacy against DIGSA in % ([4]; 320 g/ha) | Post-emergence efficacy against DIGSA in % ([4]; 1280 g/ha) | Pre-emergence efficacy against VERPE (Veronica persica (VERPE) [5]; 80 g/ha) | Pre-emergence efficacy against VERPE (Veronica persica (VERPE) [5]; 320 g/ha) | Post-emergence efficacy against ZEAMX in % (Zea mays (ZEAMX) [6]; application rate 80 g/ha) | Post-emergence efficacy against ZEAMX in % (Zea mays (ZEAMX) [6]; application rate 320 g/ha) | Pre-emergence efficacy against AMARE ([7]; 80 g/ha) | Pre-emergence efficacy against AMARE ([7]; 320 g/ha) | Pre-emergence efficacy against ZEAMX in % (Zea mays (ZEAMX) [8]; application rate 80 g/ha) | Pre-emergence efficacy against ZEAMX in % (Zea mays (ZEAMX) [8]; application rate 320 g/ha) | Pre-emergence efficacy against MATIN ([9]; 80 g/ha) | Pre-emergence efficacy against MATIN ([9]; 320 g/ha) | Pre-emergence efficacy against AVEFA (Avena fatua (AVEFA))
O=S(=O)(CCCC(F)(F)F)Oc1c(F)cccc1Oc1ncc(Br)cn1 [Example I-41] | 100% | 100% | 100% | 100% | 90% | 90% | 90% | 100% | 100% | 0% | 20% | 100% | 100% |  |  |  |  | 
Cc1cccc(Oc2ncc(F)cn2)c1OS(=O)(=O)CCC(F)(F)F [Example I-45] |  |  | 80% | 100% | 90% |  |  |  |  |  |  | 80% | 100% | 0% | 20% |  |  | 
Cc1cccc(Oc2ncc(F)cn2)c1OS(=O)(=O)CCCC(F)(F)F [Example I-46] |  |  | 100% | 100% | 90% |  |  |  |  |  |  | 80% | 100% | 0% |  |  |  | 
O=S(=O)(CCCC(F)(F)F)Oc1c(F)cccc1Oc1ncc(Cl)cn1 [Example I-49] | 90% | 100% | 100% | 100% | 90% | 90% | 90% |  |  |  |  | 100% | 100% |  |  | 80% | 100% | 
O=S(=O)(CCC1CC1)Oc1c(F)cccc1Oc1ncc(Cl)cn1 [Example I-55] |  | 90% | 100% | 100% | 90% | 90% | 90% |  | 100% |  |  | 100% | 100% | 10% |  |  |  | 
O=S(=O)(CCCC(F)F)Oc1c(F)cccc1Oc1ncc(Cl)cn1 [Example I-56] |  | 100% | 100% | 100% |  | 90% | 90% |  |  | 20% |  | 100% | 100% |  |  |  |  | 80%
O=S(=O)(CCC(F)=C(F)F)Oc1c(Cl)cccc1Oc1ncc(Cl)cn1 [Example I-73] |  |  | 90% | 100% | 90% | 90% | 100% |  | 80% | 20% |  | 90% | 100% |  |  |  |  | 
Cc1cccc(Oc2ncc(Cl)cn2)c1OS(=O)(=O)CC1CC(F)(F)C1 [Example I-74] |  |  | 90% | 100% | 90% | 90% | 100% | 80% | 100% | 0% |  | 90% | 100% | 0% |  |  |  | 
